Laboratory results as given in patent publication US20250064803A1, “DOSAGE REGIMENS FOR PARP7 INHIBITORS” (Ribon Therapeutics, Inc., priority 2021, published 2025).
“And” between values parts separate entries of the source, which are not always exact repeats. Identical values can stand only once. “Also recorded” adds a separate entry of the source.

Assays:
[1] = Particle size by laser diffraction (USP 42 <429>, Malvern Mastersizer 3000); type: physicochemical
From the text: The compound of Formula I can be prepared in micronized and nonmicronized forms. In some embodiments, the compound of Formula I used in the dosage forms of the invention is micronized. The micronized drug substance can be prepared, for example, by jet milling. Particle size can be measured by laser diffraction methods (e.g., USP 42 <429> Light Diffraction Measurement of Particle Size). Nonmicronized compound can have a particle diameter size [d90] of about 30 μm or larger. In some embodiments, nonmicronized compound has a particle diameter size [d90] of about 30 to about 500 μm, about 50 to about 400 μm, about 100 to about 350 μm, or about 150 to about 300 μm.
Micronized batches of the compound of Formula I were prepared by jet milling using a nitrogen gas feed. The nonmicronized starting material was prepared in a manner similar to the process for preparing crystalline compound of Formula I described in U.S. Pat. No. 10,550,105. Particle size was measured by laser diffraction according to USP 42 <429> using a Malvern Mastersizer 3000 equipped with a Hydro MV wet dispersion sample unit. Particle size diameters [d90] for two different lots were measured as 10.851 and 8.715 μm, respectively.

[2] = First-in-human Phase 1 dose escalation study: treatment-related adverse events, safety; type: in vivo
From the text: This protocol is a first-in-human, Phase 1, multi-center, open-label, study designed to evaluate the safety profile, including any dose-limiting toxicities (DLTs), and (maximum tolerated dose) MTD of the compound of Formula I administered as a single agent PO and establish the recommended phase 2 dose (RP2D) of the compound of Formula I. The study has a Dose Escalation Phase, which includes a relative bioavailability assessment, followed by a Dose Expansion Phase in patients with selected tumor types.
In the Dose Escalation Phase of the study, patients with any histologically- or cytologically-confirmed solid tumor type (which may include “solid” lymphoma [e.g., mantle cell]) that is refractory to standard therapy and for whom no therapy exists that would be curative or might provide clinical benefit and therefore for whom experimental therapy is a reasonable option are eligible. In the Dose Expansion Phase of the study, the RP2D will be investigated in the following cancer types: squamous cell carcinoma of the lung (SCCL), head and neck squamous cell carcinoma (HNSCC), hormone receptor positive (HR+) breast cancer, and PARP7 amplified cancer.
Two schedules are employed in the Dose Escalation Phase: • Schedule 1 will examine a 21-day cycle with 14 days of the compound of Formula I administered at doses of 25 mg, 50 mg, 100 mg, 200 mg, 300 mg, and 500 mg BID followed by a rest period. • Schedule 2 will examine a 21-day continuous dosing cycle at doses of 100 mg, 200 mg, 300 mg, and 400 mg BID.
The most frequent compound of Formula I treatment-related AEs in the ongoing Phase 1 escalation study are dysgeusia or taste disorder (36%), decreased appetite (15%), fatigue (14%), nausea (12%), and anemia, constipation, diarrhea and decreased weight (10%) each.
Overall, the safety profile of the compound of Formula I is considered manageable at the RP2D for combination with pembrolizumab.

[3] = Plasma pharmacokinetics after oral tablets and capsules in male Beagle dogs; type: in vivo; conditions: for AUC / Cmax: male, Beagle, dog, plasma, po, 100 mg
From the text: The objective of this study was to determine the plasma pharmacokinetic profiles of the compound of Formula I in male Beagle dogs after oral administration and to assess the exposure of tablets and capsules formulations.
Male Beagle dogs were purchased from Jiangsu Johnsen Bioresource CO., Ltd. The animals were 1-2.5 years old on the dosing day. All animals were housed in a 12-hour light/12-hour dark cycle environment. Animals for oral (PO) groups were fasted overnight prior to dosing and were fed approximately 2 hours after dosing. This study was approved by the Pharmaron Institutional Animal Care and Use Committee.
The compound of Formula I was used for the dose formulation and standard stock solution preparation. […] For the animals in PO groups, pentagastrin ([…], i.m.) was administrated 20 minutes before dosing PO formulation and 1.5 hours after the first pentagastrin dosing. The dosing volume was 0.024 mL/kg, the concentration was […] in DMSO/1 N NaOH/PBS. The dosing volume, detailed dosing time of pentagastrin was recorded. 10 mL of 0.001 N HCl was used to wash the gavage catheter for each animal.
Blood samples (0.5 mL) were collected from each animal via jugular veins. These blood samples were placed into tubes containing dipotassium ethylenediaminetetraacetic acid and then centrifuged at 2000 g for 10 minutes at 4° C. to produce plasma. All samples were stored at −75±15° C. until analysis.
Compound of Formula I was prepared in dimethyl sulfoxide with vortex at 1 mg/mL (free form) as standard stock solution. Calibration standard working solutions were prepared at concentrations of 5, 10, 20, 50, 100, 500, 1000, 5000, 10000 and 20000 ng/mL by serial dilution of the standard stock solution by 50% acetonitrile in water. […] These QC samples were prepared on the day of analysis in the same way as calibration standards.
5 μL of each calibration standard working solution (5, 10, 20, 50, 100, 500, 1000, 5000, 10000 and 20000 ng/mL) was added to 50 μL of blank Beagle Dog plasma to achieve calibration standards of 0.5-2000 ng/mL (0.5, 1, 2, 5, 10, 50, 100, 500, 1000, 2000 ng/mL) in a total volume of 55 μL. […] These QC samples were prepared on the day of analysis in the same way as calibration standards. 55 μL of standards, 55 μL of QC samples or 55 μL of unknown samples (50 μL of plasma sample with 5 μL 50% acetonitrile in water) were mixed with 200 μL of acetonitrile containing IS (internal standard, dexamethasone) to precipitate proteins. Then the samples were vortexed for 30 sec.
Data Acquisition was Performed by Sciex Analyst 1.6.3 Software (AB Sciex, Forster City, CA). Pharmacokinetic parameters were calculated by non-compartmental analysis (Phoenix TM WinNonlin® 6.1). The linear trapezoidal algorithm was used for AUC calculation.

[4] = Relative bioavailability PK of micronized vs nonmicronized 100 mg tablets in Phase 1 patients; type: in vivo, human
Experimental: Assessments conducted after C1D1 will be the same as described for patients in the dose escalation cohorts following Schedule 2. Based on emerging PK data, additional Relative Bioavailability Cohorts at additional dose levels may be explored.
Patients enrolled in the Relative Bioavailability Cohort(s) will have an additional visit 7 days (±3 days) prior to C1D1. […] On C1D-7 patients will be attached to a Holter monitor that will run continuously for ˜24 hours (i.e., until patients return on the following day for the 24-hr PK sample collection on C1D-6). […] On C1D1, patients will be attached to a Holter monitor that will run continuously for ˜24 hours (i.e., immediately before the study drug dose on C1D2). […] Samples collected after C1D2 are not considered part of the relative Bioavailability data set.
Plasma samples were collected at 0.5, 1, 2, 4, 6, 8, 12 and 24 hours post dose. […] Plasma samples were collected at 0.5, 1, 2, 4, 6, 8, 12 and 24 hours post dose.

[5] = cited from earlier work
[6] = patients, ongoing Phase 1 escalation study
[7] = 100 mg capsule, micronized vs nonmicronized
[8] = particle size d90:d50 18:5 μm (micronized)
[9] = particle size d90:d50 228:108 μm (nonmicronized)
[10] = NSCLC patients, second or third line, Keynote-010 (n=682)

C[C@@H](COCCC(=O)N1CCN(c2ncc(C(F)(F)F)cn2)CC1)Nc1cn[nH]c(=O)c1C(F)(F)F [compound of Formula I, 5-[[(2S)-1-(3-oxo-3-[4-[5-(trifluoromethyl)pyrimidin-2-yl]piperazin-1-yl]propoxy)propan-2-yl]amino]-4-(trifluoromethyl)-2,3-dihydropyridazin-3-one]
particle diameter size d[90] ([1]; micronized compound (jet milled)): 10.851 μm and 8.715 μm
particle diameter size d[90] ([1]; nonmicronized compound): 228.474 μm
safety profile / tolerability ([2]; 50 patients, first-in-human Phase 1 trial): favorable safety profile; also recorded: well tolerated
treatment-related AE: anemia [2, 6]: 10%
treatment-related AE: constipation [2, 6]: 10%
treatment-related AE: decreased appetite [2, 6]: 15%
treatment-related AE: decreased weight [2, 6]: 10%
treatment-related AE: diarrhea [2, 6]: 10%
treatment-related AE: dysgeusia or taste disorder [2, 6]: 36%
treatment-related AE: fatigue [2, 6]: 14%
treatment-related AE: nausea [2, 6]: 12%
increase in AUC by micronization [3, 7]: 2.8 fold
increase in Cmax by micronization [3, 7]: 4.7 fold
exposure, micronized capsules (Group E) versus nonmicronized capsules (Group D) ([3]; 100 mg/dog PO): much higher
oral exposure versus dose level ([3]; Groups A, B and C, tablets 25, 50, 100 mg/dog): increased with the dose level, though not linear
AUC [3, 8]: 9560 ng·h/mL
Cmax [3, 8]: 1670 ng/mL
AUC [3, 9]: 3400 ng·h/mL
Cmax [3, 9]: 356 ng/mL
increase in mean AUC, micronized vs nonmicronized tablet [4]: about 1.5 fold
increase in mean Cmax, micronized vs nonmicronized tablet [4]: about 2.4 fold

pembrolizumab: humanized antibody that binds to human PD-1, approved by the U.S. FDA
adverse reactions leading to discontinuation [5, 10]: 8%
pneumonitis leading to discontinuation (most common) [5, 10]: 1.8%
most frequent treatment-related AEs (fatigue, musculoskeletal pain, decreased appetite, pruritus, diarrhea, nausea, rash, pyrexia, cough, dyspnea, constipation, pain, abdominal pain), reported in ([5]; single agent (Merck 2021)): > 20%
